In paper PMC4303209, “A novel phosphatidylinositol 3-kinase (PI3K) inhibitor directs a potent FOXO-dependent, p53-independent cell cycle arrest phenotype characterized by the differential induction of a subset of FOXO-regulated genes” (Breast Cancer Research : BCR, 2014):

System: MCF-7 breast cancer cells
Test: Microarray gene expression analysis (Agilent whole human genome 4 x 44K; compound vs DMSO, LIMMA log2 fold change)
Assay type: cell-based
Settings: cell cycle genes

SMILES: Cn1ncc2c(N3CCOCC3)nc(-c3cccc(O)c3)nc21 [ETP-45658]
- CDC25B log2FC (Gene 994): -0.243
- CDC25C log2FC (Gene 995): 1.417
- CDC34 log2FC (Gene 997): 0.349
- CDC42 log2FC (Gene 998): 0.143
- CDK2 log2FC (Gene 1017): -0.519
- CDK3 log2FC (Gene 1018): -0.108
- CDK4 log2FC (Gene 1019): 0.113
- CDK5 log2FC (Gene 1020): -0.089
- CDK7 log2FC (Gene 1022): 0.920
- CDKN1A log2FC (Gene 1026): -1.401
- CDKN1B log2FC (Gene 1027): 1.129
- CDKN1C log2FC (Gene 1028): 0.689
- CDKN2A log2FC (Gene 1029): 0.240
- CDKN2D log2FC (Gene 1032): 0.891
- CDKN3 log2FC (Gene 1033): 0.104
- CENPA log2FC (Gene 1058): 0.094
- CENPE log2FC (Gene 1062): 1.101
- CENPF log2FC (Gene 1063): 1.562
- CETN2 log2FC (Gene 1069): 0.059
- CHD3 log2FC (Gene 1107): -0.048
- CHEK1 log2FC (Gene 1111): 0.461
- CKS1B log2FC (Gene 1163): 0.101
- CKS2 log2FC (Gene 1164): -0.752
- CLTC log2FC (Gene 1213): 0.237
- PLK3 log2FC (Gene 1263): -1.808
- ATF2 log2FC (Gene 1386): 0.857
- CREBL2 log2FC (Gene 1389): 0.823
- MAPK14 log2FC (Gene 1432): -0.291
- CSNK1A1 log2FC (Gene 1452): 0.166
- CSNK1D log2FC (Gene 1453): -0.308
- CSNK1E log2FC (Gene 1454): -0.533
- CSNK2A1 log2FC (Gene 1457): -0.545
- CTBP1 log2FC (Gene 1487): -0.371
- CTGF log2FC (Gene 1490): -0.597
- CYLD log2FC (Gene 1540): 0.499
- CYP27B1 log2FC (Gene 1594): -0.054
- DAPK3 log2FC (Gene 1613): -0.132
- DDB1 log2FC (Gene 1642): 0.227
- DDIT3 log2FC (Gene 1649): 2.364
- DDX3X log2FC (Gene 1654): -1.156
- DHCR24 log2FC (Gene 1718): -0.643
- DHFR log2FC (Gene 1719): 0.876
- DLG1 log2FC (Gene 1739): 0.053
- DMRT1 log2FC (Gene 1761): 0.148
- DYNC1I2 log2FC (Gene 1781): 0.828
- DNM2 log2FC (Gene 1785): -0.047
- DRD3 log2FC (Gene 1814): -0.082
- DUSP1 log2FC (Gene 1843): -0.931
- DUSP3 log2FC (Gene 1845): 0.560
- DYRK1A log2FC (Gene 1859): 0.448
- E2F1 log2FC (Gene 1869): -0.356
- E2F2 log2FC (Gene 1870): -0.581
- E2F3 log2FC (Gene 1871): -0.373
- E2F4 log2FC (Gene 1874): -0.621
- E2F5 log2FC (Gene 1875): 0.382
- E2F6 log2FC (Gene 1876): -0.321
- E4F1 log2FC (Gene 1877): 0.414
- ECT2 log2FC (Gene 1894): 1.058
- EDN3 log2FC (Gene 1908): -0.056
- EGF log2FC (Gene 1950): -0.024
- EGFR log2FC (Gene 1956): 0.311
- EIF4EBP1 log2FC (Gene 1978): -0.081
- EIF4G2 log2FC (Gene 1982): 0.237
- EMD log2FC (Gene 2010): -0.178
- ENSA log2FC (Gene 2029): -0.068
- EPS8 log2FC (Gene 2059): 0.516
- ERCC2 log2FC (Gene 2068): -0.566
- ERCC3 log2FC (Gene 2071): -0.084
- ERCC4 log2FC (Gene 2072): 0.186
- ERF log2FC (Gene 2077): 0.135
- ERH log2FC (Gene 2079): -0.238
- ERN1 log2FC (Gene 2081): -0.168
- ETS1 log2FC (Gene 2113): -0.590
- EZH2 log2FC (Gene 2146): 0.722
- FANCG log2FC (Gene 2189): -0.077
- FEN1 log2FC (Gene 2237): -0.980
- FER log2FC (Gene 2241): 0.332
- FGF2 log2FC (Gene 2247): 0.202
- FGF8 log2FC (Gene 2253): -0.131
- FGF10 log2FC (Gene 2255): 0.033
- FGFR1 log2FC (Gene 2260): -0.387
- FGFR3 log2FC (Gene 2261): -0.382
- FGFR2 log2FC (Gene 2263): 1.543
- FHL1 log2FC (Gene 2273): 0.046
- FOXC1 log2FC (Gene 2296): -0.876
- FOXM1 log2FC (Gene 2305): -0.360
- FLNA log2FC (Gene 2316): -0.229
- FNTB log2FC (Gene 2342): -0.574
- GAS1 log2FC (Gene 2619): 0.711
- GAS2 log2FC (Gene 2620): 0.183
- GAS6 log2FC (Gene 2621): -0.052
- GFI1 log2FC (Gene 2672): 0.062
- GNAI1 log2FC (Gene 2770): 1.186
- GNAI2 log2FC (Gene 2771): -0.343
- GNAI3 log2FC (Gene 2773): 0.669
- SFN log2FC (Gene 2810): -1.182
- GPR3 log2FC (Gene 2827): -0.277
- GPS1 log2FC (Gene 2873): -0.145
- GPS2 log2FC (Gene 2874): -0.087
- GSK3B log2FC (Gene 2932): -0.607
- GSPT1 log2FC (Gene 2935): -0.172
- MSH6 log2FC (Gene 2956): 0.235
- GTF2H1 log2FC (Gene 2965): 0.573
- H2AFX log2FC (Gene 3014): -1.128
- HCFC1 log2FC (Gene 3054): -0.769
- HDAC1 log2FC (Gene 3065): -0.487
- HDAC2 log2FC (Gene 3066): 0.164
- HGF log2FC (Gene 3082): -0.369
- HHEX log2FC (Gene 3087): -0.222
- FOXA1 log2FC (Gene 3169): 0.031
- HOXA13 log2FC (Gene 3209): 0.081
- HRAS log2FC (Gene 3265): -0.664
- PRMT2 log2FC (Gene 3275): 0.361
- HES1 log2FC (Gene 3280): -1.195
- HSF1 log2FC (Gene 3297): 0.106
- HSPA2 log2FC (Gene 3306): -1.351
- HSP90AA1 log2FC (Gene 3320): 1.066
- ID2 log2FC (Gene 3398): 1.025
- ID3 log2FC (Gene 3399): -0.237
- IFNG log2FC (Gene 3458): -0.055
- IGF1 log2FC (Gene 3479): 0.046
- IGF1R log2FC (Gene 3480): 0.075
- IGF2 log2FC (Gene 3481): 0.014
- IL1A log2FC (Gene 3552): -0.044
- IL1B log2FC (Gene 3553): -0.057
- IL8 log2FC (Gene 3576): -1.203
- IL12B log2FC (Gene 3593): -0.025
- ILF3 log2FC (Gene 3609): -0.460
- ILK log2FC (Gene 3611): -0.066
- INCENP log2FC (Gene 3619): -0.174
- ING2 log2FC (Gene 3622): 0.424
- INHA log2FC (Gene 3623): -0.101
- INSM1 log2FC (Gene 3642): -0.209
- INSR log2FC (Gene 3643): 0.664
- IRF6 log2FC (Gene 3664): 0.370
- ITGB1 log2FC (Gene 3688): 0.722
- JUN log2FC (Gene 3725): -0.912
- JUNB log2FC (Gene 3726): -0.596
- KIF11 log2FC (Gene 3832): 0.922
- KRT18 log2FC (Gene 3875): -0.481
- STMN1 log2FC (Gene 3925): 0.176
- LIF log2FC (Gene 3976): -1.818
- LIG1 log2FC (Gene 3978): -0.097
- LIG3 log2FC (Gene 3980): -0.509
- LLGL2 log2FC (Gene 3993): -0.345
- LRP5 log2FC (Gene 4041): -0.510
- MAD2L1 log2FC (Gene 4085): 0.081
- SMAD3 log2FC (Gene 4088): 0.254
- MCM3 log2FC (Gene 4172): -0.047
- MCM5 log2FC (Gene 4174): -0.158
- MCM7 log2FC (Gene 4176): 0.104
- MDM2 log2FC (Gene 4193): -0.059
- MDM4 log2FC (Gene 4194): 0.064
- RAB8A log2FC (Gene 4218): -0.531
- MIF log2FC (Gene 4282): 0.242
- MKI67 log2FC (Gene 4288): 0.040
